From patent US10954269B2, “Anti-inflammatory tripeptides” (Dr. August Wolff Gmbh & Co. KG Arzneimittel, priority 2013, dated 2021)

Key:
[1] = tested on: primary human T-cells; test: Cytokine secretion on protein level in activated primary human T-cells (13-plex FACS / Luminex, supernatant); format: cell-based; conditions: for IL-1 cytokine concentration / IL-2 cytokine concentration / IL-4 cytokine concentration / IL-5 cytokine concentration / IL-6 cytokine concentration / IL-9 cytokine concentration / IL-10 cytokine concentration / IL-12p70 cytokine concentration / IL-13 cytokine concentration / IL-17 cytokine concentration / IL-22 cytokine concentration / TNF-α cytokine concentration / INF-α cytokine concentration: substance 10^−9M
Procedure, shortened: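 Primary T-cells from peripheral blood of healthy volunteers, or HaCaT cells, were activated with PMA/Ionomycin or IFN-γ for 48 h and treated with tripeptides. Supernatants were collected 48 h and 72 h after stimulation and cytokines (IL-1, IL-2, IL-6, IL-12p70, IL-17, IFN-γ, TNF-α) were measured by 13-plex FACS.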

[2] = tested on: human keratinocyte cell line (HaCaT); test: Cytokine secretion on protein level in activated human keratinocyte cell line HaCaT (13-plex FACS / Luminex, supernatant); format: cell-based; conditions: substance 10^−9M
Procedure, shortened: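 Stimulus: PMA/Ionomycin or IFN-γ, 48 h; cells: HaCaT or human peripheral-blood T-cells; tripeptide treatment; readout: supernatant cytokines via 13-plex FACS or Luminex, 48–72 h post-stimulation.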

[3] = tested on: primary murine T-cells; test: Cytokine secretion on protein level in activated primary murine T-cells (13-plex FACS / Luminex, supernatant); format: cell-based, C57BL/6 mice; conditions: for IL-1 cytokine concentration / IL-2 cytokine concentration / IL-4 cytokine concentration / IL-5 cytokine concentration / IL-6 cytokine concentration / IL-10 cytokine concentration / IL-13 cytokine concentration / IL-17 cytokine concentration / IL-21 cytokine concentration / IL-22 cytokine concentration / IL-27 cytokine concentration / TNF-α cytokine concentration / IFN-γ cytokine concentration: substance 10^−9M
Procedure, shortened: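 T-cells from secondary lymphatic organs of naïve C57BL/6 mice, stimulated with PMA/Ionomycin or IFN-γ; supernatant cytokines measured by 13-plex FACS 48 h and 72 h after stimulation. In another run, PMA/Ionomycin-stimulated cells received compounds at 10^−7, 10^−9 and 10^−11 M, with IFN-γ, IL-17 and IL-10 measured by Luminex.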

[4] = primary human T-cells stimulated with IFN-γ
[5] = primary human T-cells stimulated with PBS
[6] = primary human T-cells stimulated with PMA/Ionomycin
[7] = HaCaT stimulated with PMA/Ionomycin
[8] = primary murine T-cells stimulated with IFN-γ
[9] = primary murine T-cells stimulated with PBS
[10] = primary murine T-cells stimulated with PMA/Ionomycin

Substance: N^α,N^α-dimethyl-(L)-Lys-(D)-Pro-N^α-methyl-(L)-Val-OH [Example 5]
- secretion / expression of pro-inflammatory cytokines (supernatant) ([1]; activated primary human T-cells): immunomodulatory effects were seen
- IL-1 cytokine concentration [1, 4]: 0 pg/mL
- IL-2 cytokine concentration [1, 4]: 0 pg/mL
- IL-4 cytokine concentration [1, 4]: 78.18 pg/mL
- IL-5 cytokine concentration [1, 4]: 0 pg/mL
- IL-6 cytokine concentration [1, 4]: 42.52 pg/mL
- IL-9 cytokine concentration [1, 4]: 5.56 pg/mL
- IL-10 cytokine concentration [1, 4]: 61 pg/mL
- IL-12p70 cytokine concentration [1, 4]: 0 pg/mL
- IL-13 cytokine concentration [1, 4]: 29.25 pg/mL
- IL-17 cytokine concentration [1, 4]: 26.44 pg/mL
- IL-22 cytokine concentration [1, 4]: 0 pg/mL
- TNF-α cytokine concentration [1, 4]: 12.52 pg/mL
- IL-1 cytokine concentration [1, 5]: 0 pg/mL
- IL-2 cytokine concentration [1, 5]: 0 pg/mL
- IL-4 cytokine concentration [1, 5]: 0 pg/mL
- IL-5 cytokine concentration [1, 5]: 0 pg/mL
- IL-6 cytokine concentration [1, 5]: 94.11 pg/mL
- IL-9 cytokine concentration [1, 5]: 6.74 pg/mL
- IL-10 cytokine concentration [1, 5]: 119.04 pg/mL
- IL-12p70 cytokine concentration [1, 5]: 0 pg/mL
- IL-13 cytokine concentration [1, 5]: 35.75 pg/mL
- IL-17 cytokine concentration [1, 5]: 0 pg/mL
- IL-22 cytokine concentration [1, 5]: 0 pg/mL
- INF-α cytokine concentration [1, 5]: 0 pg/mL
- TNF-α cytokine concentration [1, 5]: 0 pg/mL
- IL-1 cytokine concentration [1, 6]: 748 pg/mL
- IL-2 cytokine concentration [1, 6]: 4369.09 pg/mL
- IL-4 cytokine concentration [1, 6]: 92.43 pg/mL
- IL-5 cytokine concentration [1, 6]: 392.66 pg/mL
- IL-6 cytokine concentration [1, 6]: 1051.51 pg/mL
- IL-9 cytokine concentration [1, 6]: 193.58 pg/mL
- IL-10 cytokine concentration [1, 6]: 789.38 pg/mL
- IL-12p70 cytokine concentration [1, 6]: 0 pg/mL
- IL-13 cytokine concentration [1, 6]: 912.49 pg/mL
- IL-17 cytokine concentration [1, 6]: 1164.75 pg/mL
- IL-22 cytokine concentration [1, 6]: 0 pg/mL
- INF-α cytokine concentration [1, 6]: 8770.62 pg/mL
- TNF-α cytokine concentration [1, 6]: 2187.46 pg/mL
- IL-1 cytokine concentration ([2]; HaCaT stimulated with IFN-γ): 0 pg/mL
- IL-2 cytokine concentration ([2]; HaCaT stimulated with IFN-γ): 0 pg/mL
- IL-4 cytokine concentration ([2]; HaCaT stimulated with IFN-γ): 0 pg/mL
- IL-5 cytokine concentration ([2]; HaCaT stimulated with IFN-γ): 0 pg/mL
- IL-6 cytokine concentration ([2]; HaCaT stimulated with IFN-γ): 415.82 pg/mL
- IL-9 cytokine concentration ([2]; HaCaT stimulated with IFN-γ): 0 pg/mL
- IL-10 cytokine concentration ([2]; HaCaT stimulated with IFN-γ): 41.86 pg/mL
- IL-12p70 cytokine concentration ([2]; HaCaT stimulated with IFN-γ): 0 pg/mL
- IL-13 cytokine concentration ([2]; HaCaT stimulated with IFN-γ): 1974.31 pg/mL
- IL-17 cytokine concentration ([2]; HaCaT stimulated with IFN-γ): 0 pg/mL
- IL-22 cytokine concentration ([2]; HaCaT stimulated with IFN-γ): 0 pg/mL
- TNF-α cytokine concentration ([2]; HaCaT stimulated with IFN-γ): 0 pg/mL
- IFN-γ cytokine concentration ([2]; HaCaT stimulated with PBS): 0 pg/mL
- IL-1 cytokine concentration ([2]; HaCaT stimulated with PBS): 0 pg/mL
- IL-2 cytokine concentration ([2]; HaCaT stimulated with PBS): 149.51 pg/mL
- IL-4 cytokine concentration ([2]; HaCaT stimulated with PBS): 152.8 pg/mL
- IL-5 cytokine concentration ([2]; HaCaT stimulated with PBS): 133.49 pg/mL
- IL-6 cytokine concentration ([2]; HaCaT stimulated with PBS): 218.63 pg/mL
- IL-9 cytokine concentration ([2]; HaCaT stimulated with PBS): 28.51 pg/mL
- IL-10 cytokine concentration ([2]; HaCaT stimulated with PBS): 89.86 pg/mL
- IL-12p70 cytokine concentration ([2]; HaCaT stimulated with PBS): 0 pg/mL
- IL-13 cytokine concentration ([2]; HaCaT stimulated with PBS): 0 pg/mL
- IL-17 cytokine concentration ([2]; HaCaT stimulated with PBS): 18.83 pg/mL
- IL-22 cytokine concentration ([2]; HaCaT stimulated with PBS): 0 pg/mL
- TNF-α cytokine concentration ([2]; HaCaT stimulated with PBS): 0 pg/mL
- IFN-γ cytokine concentration [2, 7]: 199.65 pg/mL
- IL-1 cytokine concentration [2, 7]: 104.98 pg/mL
- IL-2 cytokine concentration [2, 7]: 145.65 pg/mL
- IL-4 cytokine concentration [2, 7]: 168.7 pg/mL
- IL-5 cytokine concentration [2, 7]: 1.93 pg/mL
- IL-6 cytokine concentration [2, 7]: 379.04 pg/mL
- IL-9 cytokine concentration [2, 7]: 0 pg/mL
- IL-10 cytokine concentration [2, 7]: 59.49 pg/mL
- IL-12p70 cytokine concentration [2, 7]: 0 pg/mL
- IL-13 cytokine concentration [2, 7]: 0 pg/mL
- IL-17 cytokine concentration [2, 7]: 95.44 pg/mL
- IL-22 cytokine concentration [2, 7]: 0 pg/mL
- TNF-α cytokine concentration [2, 7]: 27.45 pg/mL
- secretion / expression of pro-inflammatory cytokines (supernatant) ([3]; activated primary murine T-cells): immunomodulatory effects were seen
- IL-1 cytokine concentration [3, 8]: 49.65 pg/mL
- IL-2 cytokine concentration [3, 8]: 89.76 pg/mL
- IL-4 cytokine concentration [3, 8]: 47.55 pg/mL
- IL-5 cytokine concentration [3, 8]: 263.27 pg/mL
- IL-6 cytokine concentration [3, 8]: 127.92 pg/mL
- IL-10 cytokine concentration [3, 8]: 1359.92 pg/mL
- IL-13 cytokine concentration [3, 8]: 0 pg/mL
- IL-17 cytokine concentration [3, 8]: 97.22 pg/mL
- IL-21 cytokine concentration [3, 8]: 0 pg/mL
- IL-22 cytokine concentration [3, 8]: 32.03 pg/mL
- IL-27 cytokine concentration [3, 8]: 20.07 pg/mL
- TNF-α cytokine concentration [3, 8]: 24.23 pg/mL
- IFN-γ cytokine concentration [3, 9]: 232.8 pg/mL
- IL-1 cytokine concentration [3, 9]: 56.42 pg/mL
- IL-2 cytokine concentration [3, 9]: 151.25 pg/mL
- IL-4 cytokine concentration [3, 9]: 53.6 pg/mL
- IL-5 cytokine concentration [3, 9]: 209.32 pg/mL
- IL-6 cytokine concentration [3, 9]: 117.95 pg/mL
- IL-10 cytokine concentration [3, 9]: 1311.94 pg/mL
- IL-13 cytokine concentration [3, 9]: 0 pg/mL
- IL-17 cytokine concentration [3, 9]: 0 pg/mL
- IL-21 cytokine concentration [3, 9]: 13.71 pg/mL
- IL-22 cytokine concentration [3, 9]: 27.66 pg/mL
- IL-27 cytokine concentration [3, 9]: 81.64 pg/mL
- TNF-α cytokine concentration [3, 9]: 32.89 pg/mL
- IFN-γ cytokine concentration [3, 10]: 2075.42 pg/mL
- IL-1 cytokine concentration [3, 10]: 178.79 pg/mL
- IL-2 cytokine concentration [3, 10]: 112.62 pg/mL
- IL-4 cytokine concentration [3, 10]: 81.4 pg/mL
- IL-5 cytokine concentration [3, 10]: 246.42 pg/mL
- IL-6 cytokine concentration [3, 10]: 189.2 pg/mL
- IL-10 cytokine concentration [3, 10]: 1233.45 pg/mL
- IL-13 cytokine concentration [3, 10]: 0 pg/mL
- IL-17 cytokine concentration [3, 10]: 0 pg/mL
- IL-21 cytokine concentration [3, 10]: 67.28 pg/mL
- IL-22 cytokine concentration [3, 10]: 29.38 pg/mL
- IL-27 cytokine concentration [3, 10]: 51.58 pg/mL
- TNF-α cytokine concentration [3, 10]: 29.15 pg/mL
